Measurements reported in patent US20190125669A1, “SYSTEMS AND METHODS FOR STEROIDAL GELS” (Children's Medical Center Corporation, priority 2016, published 2019).
“Also recorded” adds a separate entry of the source. Counter-ions that a name gives are not always drawn.

Legend:
[1] = Gelation of steroid drugs and alkaline-earth metal ion; format: physicochemical; design: key: L indicates that a liquid was formed; P indicates that a precipitate was formed; H indicates that a hydrogel was formed; L/H indicates that a mixture of a hydrogel and a liquid was formed; P->H indicates that a precipitate formed initially which converted to a hydrogel overnight; conditions: molar ratio steroid drug:metal ion 1:1
Experimental: The molar ratio of the steroid drug to the alkaline earth metal ion was 1:1 for all of the above samples.
Preparation of hydrogel. […] To form the DexP-hydrogel containing bupivacaine chlorhydrate (BPV), a DexP aqueous solution (100 mM) was added to a mixture of bupivacaine (10 mg/mL; approx. 30.8 mM) and Ca^2+ (100 mM) in a volume ratio of 1:2:1.

C2C12 cells = test: Cell viability (MTS assay, Transwell); format: cell-based; conditions: 24 h exposure, hydrogels [DexP]=25 mM
Experimental: The cytotoxicity of DexP-hydrogels ([DexP]:[Ca^2+]=2:1, 1:1, or 2:3), and free DexP were assessed by exposing C2C12 cells to them for 24 h in a Transwell® system where the gels were separated from the cells by a permeable membrane (FIG. 12) and measuring cell viability by MTS (3-(4,5-dimethylthiazol-2-yl)-5-(3-carboxymethoxyphenyl)-2-(4-sulfophenyl)-2H-tetrazolium) assay. […] The concentration of free DexP in the cell culture media incubated with the DexP-hydrogel ([DexP]:[Ca^2+]=2:1) for 24 h was 2.5 mg/mL (calculated from the release profile in FIG. 3), and the reduction of cell viability in that group was similar to that from 2.5 mg/mL of free DexP (p=0.31, p<0.005 compared to untreated cells). 25 mM DexP-hydrogels with the ratio [DexP]:[Ca^2+]=1:1 were used in subsequent experiments.
Cell viability. In vitro cell viability in the presence of DexP hydrogels was investigated in C2C12 cells (American Type Culture Collection, Manassas, Va.). In brief, C2C12 cells were grown and maintained in DMEM with 20% FBS and 1% Penicillin Streptomycin (Invitrogen, Waltham, Mass.) at 37° C. in 5% CO2. Cells were seeded into the lower chamber of 24-well Transwell® plates (Costar 3470, pore size 0.4 micrometers, Corning Incorporated, Corning, N.Y.) at 50,000 cells/mL in DMEM with 2% horse serum and 1% penicillin streptomycin and incubated for 14 days to allow differentiation into myotubes. […]

sciatic nerve = test: Sciatic nerve blockade, sensory (modified hotplate test); format: in vivo, rats; conditions: 0.3 mL at the sciatic nerve; bupivacaine 5 mg/mL (15.4 mM); DexP 25 mM where present; mean+/−SD
Experimental: Sciatic nerve blockade. Under brief isoflurane-oxygen anesthesia, the animals were injected with 0.3 mL of test material using a 23 G needle, which was introduced postero-medial to the greater trochanter until contact with bone.
Sensory nerve block was assessed by a modified hotplate test, as reported previously. The plantar surface of the rat's hind paw was placed on a pre-heated hot plate at 56° C. The time (termed thermal latency) that the animal would leave its hindpaw on the hotplate was recorded. Longer latencies reflected deeper degrees of local anesthesia. Pristine animals have latencies of about 2 s. After 12 s, the hindpaw was removed from the hotplate by the investigator to avoid tissue thermal injury or the development of hyperalgesia. Measurements were repeated 3 times at each timepoint. The duration of block was calculated as the time required for thermal latency to return to a value of 7 s from a higher value; 7 s is the midpoint between a baseline thermal latency of 2 seconds in adult rats, and a maximal latency of 12 s.

[2] = test system: sciatic nerve and surrounding tissues; test: Histology: myotoxicity and inflammation scores; format: in vivo, rats; conditions: for Inflammation (range 0-4) / Myotoxicity (range 0-6): median with 25th and 75th percentiles, bupivacaine 5.0 mg/mL
From the text: 4 or 14 days after injection (n=6 at each time point), the sciatic nerve and surrounding tissues were harvested and processed for histology by hematoxylin-eosin staining (FIG. 6, Table 2). Overall, tissue reaction to all formulations was relatively benign.
Histology. Rats were euthanized by carbon dioxide 4 days or 14 days after injection. The nerve and surrounding tissue were harvested and underwent standard procedures to produce hematoxylin and eosin-stained slides. The samples were scored for inflammation (0-4) and myotoxicity (0-6). The inflammation score was a subjective quantification of severity, where 0 was normal and 4 was severe inflammation. The myotoxicity score was determined by the nuclear internalization and regeneration of myocytes, two representative characteristics of local anesthetics myotoxicity. Nuclear internalization was characterized by myocytes having nuclei located away from its usual location at the periphery of the cell. Regeneration was characterized by the presence of shrunken myocytes with basophilic cytoplasm. The scoring scale was as follows: 0=normal; 1=per fascicular internalization; 2=deep internalization (>5 cell layers); 3=perifascicular regeneration; 4=deep tissue regeneration (>5 cell layers); 5=hemefascicular regeneration; 6=holofascicular regeneration.

Compound	Gelation ([1]; Ba^2+ concentration 2.5)	Gelation ([1]; Ba^2+ concentration 6.25)	Gelation ([1]; Ba^2+ concentration 12.5)	Gelation ([1]; Ba^2+ concentration 25)	Gelation ([1]; Ca^2+ concentration 2.5)	Gelation ([1]; Ca^2+ concentration 6.25)	Gelation ([1]; Ca^2+ concentration 12.5)	Gelation ([1]; Ca^2+ concentration 25)	Cell viability / cytotoxicity (C2C12 cells)	Duration of sensory blockade (sciatic nerve) [min]	Inflammation (range 0-4) ([2]; 4 days)	Myotoxicity (range 0-6) ([2]; 4 days)	Inflammation (range 0-4) ([2]; 14 days)	Myotoxicity (range 0-6) ([2]; 14 days)	Tissue reaction (histology, H&E) ([2]; day 4 after injection at the sciatic nerve, listed as free bupivacaine solution, hydrochloride)	Tissue reaction (histology, H&E) ([2]; day 14 after injection at the sciatic nerve)
hydrocortisone phosphate disodium	L	L	P−>H	P−>H	L/H	L/H	H	H	–	–	–	–	–	–	–	–
C[C@@H]1C[C@H]2[C@@H]3CCC4=CC(=O)C=C[C@]4(C)[C@@]3(F)[C@@H](O)C[C@]2(C)[C@@]1(O)C(=O)COP(=O)(O)O [Dexamethasone phosphate, dexamethasone phosphate disodium]	L	L	P−>H	P−>H	L/H	L/H	H	H	concentration-dependent reduction of cell viability	–	–	–	–	–	–	–
CCCCN1CCCCC1C(=O)Nc1c(C)cccc1C (centres unmarked) [Bupivacaine solution, bupivacaine hydrochloride]	–	–	–	–	–	–	–	–	–	126 ± 38	2.0 (1.0-2.5)	3.0 (3.0-3.75)	1.0 (0.5-1.0)	1.0 (0.5-1.0)	inflammatory infiltrate consisting primarily of macrophages with lymphocytes and occasional neutrophils; also recorded: evidence of myotoxicity	diminished compared to reaction at day 4, almost back to normal
C[C@H]1C[C@H]2[C@@H]3CCC4=CC(=O)C=C[C@]4(C)[C@@]3(F)[C@@H](O)C[C@]2(C)[C@@]1(O)C(=O)COP(=O)(O)O [Betamethasone phosphate, betamethasone phosphate disodium]	L	L	P−>H	P−>H	L/H	L/H	H	H	–	–	–	–	–	–	–	–
